For one assay, the target named is T1, JAK2 (Homo sapiens, UniProt O60674).
T1 construct: endogenous in cells; host or cells: Mixed Molt4 / Ramos cell lysate (1:2)
Description: kinobeads assay (competition with affinity matrix in mixed Molt4/Ramos cell lysate, dot blot detection), JAK2. It is filed as binding. Conditions: activity level. The method, then: (§1) The compounds of the present invention as described in the previous examples were tested in a kinobeads assay as described for ZAP-70 (WO-A 2007/137867). Briefly, test compounds (at various concentrations) and the affinity matrix with the immobilized aminopyrido-pyrimidine ligand 24 were added to cell lysate aliquots and allowed to bind to the proteins in the lysate sample. After the incubation time the beads with captured proteins were separated from the lysate. Bound proteins were then eluted and the presence of, JAK2 and JAK3 was detected and quantified using specific antibodies in a dot blot procedure and the Odyssey infrared detection system. Dose response curves for individual kinases were generated and IC50 values calculated. Kinobeads assays for ZAP-70 (WO-A 2007/137867) and for kinase selectivity profiling (WO-A 2006/134056) have been previously described.
(§2) 5× DP buffer: 250 mM Tris-HCl pH 7.4, 25% Glycerol, 7.5 mM MgCl2, 750 mM NaCl, 5 mM Na3VO4; filter the 5× DP buffer through a 0.22 μm filter and store in aliquots at −80° C. The 5× DP buffer is diluted with H2O to 1× DP buffer containing 1 mM DTT and 25 mM NaF.
(§3) Stock solutions of test compounds were prepared in DMSO. In a 96 well plate 30 μl solution of diluted test compounds at 5 mM in DMSO were prepared. Starting with this solution a 1:3 dilution series (9 steps) was prepared. For control experiments (no test compound) a buffer containing 2% DMSO was used.
(§4) Molt4 cells (ATCC catalogue number CRL-1582) and Ramos cells (ATCC catalogue number CRL-1596) were grown in 1 litre Spinner flasks (Integra Biosciences, #182101) in suspension in RPMI 1640 medium (Invitrogen, #21875-034) supplemented with 10% Fetal Bovine Serum (Invitrogen) at a density between 0.15×10^6 and 1.2×10^6 cells/ml. Cells were harvested by centrifugation, washed once with 1× PBS buffer (Invitrogen, #14190-094) and cell pellets were frozen in liquid nitrogen and subsequently stored at −80° C. Cells were homogenized in a Potter S homogenizer in lysis buffer: 50 mM Tris-HCl, 0.8% NP40, 5% glycerol, 150 mM NaCl, 1.5 mM MgCl2, 25 mM NaF, 1 mM sodium vanadate, 1 mM DTT, pH 7.5. One complete EDTA-free tablet (protease inhibitor cocktail, Roche Diagnostics, 1873580) per 25 ml buffer was added. The material was dounced 10 times using a mechanized POTTER S, transferred to 50 ml falcon tubes, incubated for 30 minutes on ice and spun down for 10 min at 20,000 g at 4° C. (10,000 rpm in Sorvall SLA600, precooled). The supernatant was transferred to an ultracentrifuge (UZ)-polycarbonate tube (Beckmann, 355654) and spun for 1 hour at 100.000 g at 4° C. (33.500 rpm in Ti50.2, precooled). The supernatant was transferred again to a fresh 50 ml falcon tube, the protein concentration was determined by a Bradford assay (BioRad) and samples containing 50 mg of protein per aliquot were prepared. The samples were immediately used for experiments or frozen in liquid nitrogen and stored frozen at −80° C.
(§5) Cell lysate (approximately 50 mg protein per plate) was thawed in a water bath at room temperature and then kept on ice. To the thawed cell lysate 1× DP 0.8% NP40 buffer containing protease inhibitors (1 tablet for 25 ml buffer; EDTA-free protease inhibitor cocktail; Roche Diagnostics 1873580) was added in order to reach a final protein concentration of 5 mg/ml total protein. The diluted cell lysate was stored on ice. Mixed Molt4/Ramos lysate was prepared by combining one volume of Molt4 lysate and two volumes of Ramos lysate (ratio 1:2).
(§6) To a 96 well filter plate (Multiscreen HTS, BV Filter Plates, Millipore #MSBVN1250) were added per well: 100 μl affinity matrix (3% beads slurry), 3 μl of compound solution, and 50 μl of diluted lysate. Plates were sealed and incubated for three hours in a cold room on a plate shaker (Heidolph tiramax 1000) at 750 rpm. Afterwards the plate was washed twice with 230 μl washing buffer (1× DP 0.4% NP40). […]

For another assay, the target named is T2, JAK3 (Homo sapiens, UniProt P52333).
T2 construct: endogenous in cells; host or cells: Mixed Molt4 / Ramos cell lysate (1:2)
T2 sequence (P52333 1-1124): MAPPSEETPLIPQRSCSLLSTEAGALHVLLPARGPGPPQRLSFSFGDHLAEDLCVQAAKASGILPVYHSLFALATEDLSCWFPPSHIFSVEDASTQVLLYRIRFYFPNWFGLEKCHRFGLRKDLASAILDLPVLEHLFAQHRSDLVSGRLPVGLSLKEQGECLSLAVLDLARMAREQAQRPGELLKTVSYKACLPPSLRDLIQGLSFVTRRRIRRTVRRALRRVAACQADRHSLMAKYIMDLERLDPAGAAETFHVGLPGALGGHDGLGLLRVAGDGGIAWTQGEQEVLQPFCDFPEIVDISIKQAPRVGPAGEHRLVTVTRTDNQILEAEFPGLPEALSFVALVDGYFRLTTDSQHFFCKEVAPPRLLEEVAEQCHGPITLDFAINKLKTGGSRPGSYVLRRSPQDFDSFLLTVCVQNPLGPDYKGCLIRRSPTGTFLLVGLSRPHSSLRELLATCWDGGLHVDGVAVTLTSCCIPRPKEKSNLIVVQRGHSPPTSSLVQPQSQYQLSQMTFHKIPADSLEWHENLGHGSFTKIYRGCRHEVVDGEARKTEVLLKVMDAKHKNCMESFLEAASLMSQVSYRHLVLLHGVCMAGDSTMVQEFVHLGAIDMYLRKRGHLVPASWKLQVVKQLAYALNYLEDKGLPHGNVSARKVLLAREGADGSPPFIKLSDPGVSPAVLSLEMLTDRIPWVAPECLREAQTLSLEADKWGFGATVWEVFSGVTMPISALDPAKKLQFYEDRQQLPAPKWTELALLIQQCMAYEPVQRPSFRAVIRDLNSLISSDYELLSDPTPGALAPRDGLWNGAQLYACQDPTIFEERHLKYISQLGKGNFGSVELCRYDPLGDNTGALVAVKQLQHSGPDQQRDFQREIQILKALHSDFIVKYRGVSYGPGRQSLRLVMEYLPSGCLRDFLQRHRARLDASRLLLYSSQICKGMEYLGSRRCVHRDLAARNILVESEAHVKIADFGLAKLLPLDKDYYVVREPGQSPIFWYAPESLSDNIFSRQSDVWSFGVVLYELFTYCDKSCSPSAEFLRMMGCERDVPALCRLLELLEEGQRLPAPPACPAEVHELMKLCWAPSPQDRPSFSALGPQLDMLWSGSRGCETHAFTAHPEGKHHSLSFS
Description: kinobeads assay (competition with affinity matrix in mixed Molt4/Ramos cell lysate, dot blot detection), JAK3. It is filed as binding. Conditions: activity level. How it is done:
as §1, §2, §3, §4, §5, §6

A value given as a limit tells only on which side of the number the result lay.

Here are results for twelve compounds from patent publication US20120040955A1 (priority 2009, published 2012).

T1 sequence (O60674 whole entry): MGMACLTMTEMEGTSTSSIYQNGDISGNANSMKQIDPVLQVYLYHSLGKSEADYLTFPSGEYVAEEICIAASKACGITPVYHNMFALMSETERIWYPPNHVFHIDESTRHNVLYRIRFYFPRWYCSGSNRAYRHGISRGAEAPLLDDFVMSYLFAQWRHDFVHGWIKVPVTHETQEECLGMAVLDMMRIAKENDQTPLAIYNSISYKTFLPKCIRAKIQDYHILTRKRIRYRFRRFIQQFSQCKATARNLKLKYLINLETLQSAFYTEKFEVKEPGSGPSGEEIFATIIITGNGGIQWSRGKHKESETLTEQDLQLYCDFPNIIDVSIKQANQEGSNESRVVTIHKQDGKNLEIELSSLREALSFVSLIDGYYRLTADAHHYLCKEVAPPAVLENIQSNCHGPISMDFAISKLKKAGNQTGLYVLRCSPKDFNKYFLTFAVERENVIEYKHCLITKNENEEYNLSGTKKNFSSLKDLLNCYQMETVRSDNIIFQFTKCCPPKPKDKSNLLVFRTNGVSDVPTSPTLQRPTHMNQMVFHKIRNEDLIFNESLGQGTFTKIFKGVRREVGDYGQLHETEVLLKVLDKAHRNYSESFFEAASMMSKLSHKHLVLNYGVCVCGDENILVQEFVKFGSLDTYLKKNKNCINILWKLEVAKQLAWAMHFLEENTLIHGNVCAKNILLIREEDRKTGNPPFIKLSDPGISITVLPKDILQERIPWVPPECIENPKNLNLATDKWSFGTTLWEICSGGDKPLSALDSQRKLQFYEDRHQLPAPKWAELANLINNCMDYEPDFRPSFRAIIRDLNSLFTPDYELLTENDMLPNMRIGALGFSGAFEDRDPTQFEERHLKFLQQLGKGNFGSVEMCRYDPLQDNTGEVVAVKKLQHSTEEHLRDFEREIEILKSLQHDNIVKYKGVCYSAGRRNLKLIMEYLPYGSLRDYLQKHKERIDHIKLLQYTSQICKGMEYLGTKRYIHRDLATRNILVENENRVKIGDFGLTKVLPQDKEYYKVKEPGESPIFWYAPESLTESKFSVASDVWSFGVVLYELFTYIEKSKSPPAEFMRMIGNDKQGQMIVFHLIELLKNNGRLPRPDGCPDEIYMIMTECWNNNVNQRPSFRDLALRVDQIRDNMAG

In general, IC50 refers to the point on the concentration scale where inhibition reaches its midpoint. A higher IC50 goes with weaker potency. As for `CS(=O)(=O)Nc1ccccc1Nc1nc(Nc2ccc(N3CCOCC3)cc2F)ncc1F` [Example 2, N-(2-(5-fluoro-2-(2-fluoro-4-morpholinophenylamino)pyrimidin-4-ylamino)phenyl)methanesulfonamide], the IC50 is above 10000 nM at JAK2 and 100 to 1000 nM on JAK3.

With `CS(=O)(=O)Nc1ccccc1Nc1nc(Nc2cc(C(=O)NC3CC3)ccc2F)ncc1F` [Example 32, 3-(5-fluoro-4-(2-(methylsulfonamido)phenylamino)pyrimidin-2-ylamino)-N-cyclopropyl-4-fluorobenzamide], the IC50 was above 10000 nM on JAK2 and 100 to 1000 nM at JAK3.

As for `CCS(=O)(=O)Nc1ccccc1Nc1nc(Nc2cc(C(=O)NC3CC3)ccc2F)ncc1Cl` [Example 42, 3-(5-chloro-4-(2-(ethylsulfonamido)phenylamino)pyrimidin-2-ylamino)-N-cyclopropyl-4-fluorobenzamide], the IC50 is above 10000 nM on JAK2 and below 100 nM at JAK3.

Regarding `CNC(=O)c1cccc(Nc2ncc(Cl)c(Nc3ccccc3NS(C)(=O)=O)n2)c1F` [Example 56, 3-(5-chloro-4-(2-(methylsulfonamido)phenylamino)pyrimidin-2-ylamino)-2-fluoro-N-methylbenzamide], the IC50 on JAK2 was 1000 to 10000 nM; at JAK3, below 100 nM.

With `CNC(=O)c1ccc(F)c(Nc2ncc(Cl)c(Nc3cc(F)c(F)cc3NS(C)(=O)=O)n2)c1` [Example 63, 3-(5-chloro-4-(4,5-difluoro-2-(methylsulfonamido)phenylamino)pyrimidin-2-ylamino)-4-fluoro-N-methylbenzamide], the IC50 at JAK2 fell in the range of 1000 to 10000 nM; at JAK3 it was 100 to 1000 nM.

Turning to `Cc1cccc(Nc2nc(Nc3cc(-n4cnnn4)ccc3F)ncc2Cl)c1NS(C)(=O)=O` [Example 9, N-(2-(5-chloro-2-(2-fluoro-5-(1H-tetrazol-1-yl)phenylamino)pyrimidin-4-ylamino)-6-methylphenyl)methanesulfonamide], the IC50 was 100 to 1000 nM at JAK2 and below 100 nM on JAK3.

Consider `CCS(=O)(=O)Nc1ccccc1Nc1nc(Nc2cc(C(=O)N3CCCC3)ccc2F)ncc1Cl` [Example 41, N-(2-(5-chloro-2-(2-fluoro-5-(pyrrolidine-1-carbonyl)phenylamino)pyrimidin-4-ylamino)phenyl)ethanesulfonamide], for which the IC50 is above 10000 nM on JAK2 and 100 to 1000 nM at JAK3.

As for `CS(=O)(=O)Nc1c(F)cccc1Nc1nc(Nc2cc(-n3cnnn3)ccc2F)ncc1F` [Example 3, N-(2-fluoro-6-(5-fluoro-2-(2-fluoro-5-(1H-tetrazol-1-yl)phenylamino)pyrimidin-4-ylamino)phenyl)methanesulfonamide], the IC50 on JAK2 was above 10000 nM; at JAK3, below 100 nM.

Turning to `CC(C)NC(=O)c1ccc(Nc2ncc(Cl)c(Nc3ccccc3NS(C)(=O)=O)n2)c(F)c1F` [Example 58, 4-((5-chloro-4-((2-(methylsulfonamido)phenyl)amino)pyrimidin-2-yl)amino)-2,3-difluoro-N-isopropylbenzamide], the IC50 is 1000 to 10000 nM on JAK2 and below 100 nM on JAK3.

For the compound `Cc1cccc(Nc2nc(Nc3cc(-n4cnnn4)ccc3F)ncc2F)c1NS(C)(=O)=O` [Example 4, N-(2-(5-fluoro-2-(2-fluoro-5-(1H-tetrazol-1-yl)phenylamino)pyrimidin-4-ylamino)-6-methylphenyl)methanesulfonamide], the values for the IC50 at JAK2 and on JAK3 were above 10000 nM and below 100 nM, respectively.

Regarding `CS(=O)(=O)Nc1c(F)cccc1Nc1nc(Nc2cc(-n3cnnn3)ccc2F)ncc1Cl` [Example 55, N-(2-(5-chloro-2-(2-fluoro-5-(1H-tetrazol-1-yl)phenylamino)pyrimidin-4-ylamino)-6-fluorophenyl)methanesulfonamide], the figures for the IC50 on JAK2 and at JAK3 were 100 to 1000 nM and below 100 nM, respectively.

For the compound `CN(c1ccccc1Nc1nc(Nc2cc(-n3cnnn3)ccc2F)ncc1F)S(C)(=O)=O` [Example 13, N-(2-(5-fluoro-2-(2-fluoro-5-(1H-tetrazol-1-yl)phenylamino)pyrimidin-4-ylamino)phenyl)-N-methylmethanesulfonamide], the half-inhibitory concentration (IC50) was 100 to 1000 nM at JAK2 and below 100 nM at JAK3.
